{"source": "patent US5563037A", "about": "“Homogeneous method for assay of double-stranded nucleic acids using fluorescent dyes and kit useful therein” (Johnson & Johnson Clinical Diagnostics, Inc., priority 1995, dated 1996)", "key": {"[1]": {"molecular_target": "double-stranded nucleic acids", "assay": "Binding constant (Kb) of fluorescent dye with double-stranded nucleic acids", "details": "Kp from Molecular Probes catalog divided by 55", "source_text": "The fluorescent dyes useful herein are generally defined as unsymmetrical cyanine dyes having a binding constant (Kb) within the range of from about 1×104 to about 5×105 (molar^-1). As used to define Kb, \"about\" refers to a variance of 10%. The dyes are also water-soluble or water-dispersible so they can bind to the nucleic acids in the aqueous reaction mixture. Depending upon the anions used, the dyes may be dissolved in a water-miscible solvent.\nParticularly useful fluorescent dyes are commercially available from Molecular Probes, Inc. having the trade names and Kp values listed in Table I below. However, this invention is not to be construed as limited to the particular Molecular Probes, Inc. dyes listed therein since these are but preferred dyes. The cations of these preferred dyes are also identified below by chemical structure. The compounds can include any suitable divalent anion, or two monovalent anions. Iodide is preferred. [drawing 3]\n*The Kb values in the table were calculated by dividing the partitio\ncoefficient (Kp) reported in the Molecular Probes, Inc. catalog, page 224\nby 55, the molarity of water."}, "HIV-I DNA [2]": {"test_system": "HIV-I DNA", "assay": "Example 1: PCR amplification of HIV-I DNA with YO-PRO-1 dye, fluorescence vs. PCR cycles", "format": "biochemical", "source_text": "The primers used in Examples 1 and 2 had the following sequences which are complementary to the gag region of HIV-I DNA:\nHIV-I target DNA was obtained from HUT78/HIV AAV cells obtained from Bernie Poiesz of Syracuse University. Each cell contained about 1 HIV-I copy.\nThe final PCR reaction mixture contained the primers SEQ ID NO:1 and SEQ ID NO:2 (0.4 μmolar of each), magnesium chloride (10 mmolar), each of dATP, dCTP, dGTP and dTTP (1.5 mmolar of each), tris(hydroxymethyl)aminomethane buffer (10 mmolar, pH 8), ethylenediaminetetraacetic acid (0.1 mmolar), potassium chloride (50 mmolar), DNA polymerase (160 units/ml) and Kodak Ultrapure Human DNA (0.22 μg/μl), glycerol (7.5%). […]\nAll reagents, except the DNA polymerase, were mixed with the buffer solution noted above. […] The fluorescence of the contents of that tube was then measured following dilution (100 μl of reaction mixture with 3900 μl of dye solution at a concentration of […], giving a final fluid volume of 4 ml in the fluorimeter cuvette) on a commercially available Perkin-Elmer LS-5B spectrofluorimeter (excitation at 491 nm, emission at 509 nm).\nThe results of these measurements are shown in the FIGURE which is a plot of fluorescence intensity vs. the number of PCR cycles. […]"}, "HIV-I DNA [3]": {"test_system": "HIV-I DNA", "assay": "Example 2: fluorescence of amplification products", "format": "biochemical", "description": "The method of this invention was compared to an amplification and detection method outside the scope of this invention, which was carried out using YOYO-1 (1 μmolar final concentration), a tetravalent fluorescent dye, in the buffered solution described above. This dye has the following structure: [drawing 4]\nThe PCR reaction mixture of Example 1 (except the DNA polymerase) was made to a volume of 5472 μl. The resulting mixture was aliquoted into tubes A, B and C (1824 μl each) representing Samples A, B and C, respectively.\nThe sample in Tube A was diluted with buffer (220 μl) and subjected to amplification without any fluorescence dye present. The dye was added at the end of amplification for quantitative detection of the resulting products.\nIn addition to the PCR reagents, the sample in Tube B contained YOYO-1 fluorescent dye (0.1 μmolar) which had been added prior to amplification (220 μl of a 10 μmolar solution).\nThe sample in Tube C also contained YO-PRO-1 fluorescent dye (0.1 μmolar) which had been added prior to amplification (220 μl of a 10 μmolar solution).\nThe DNA polymerase (88 μl) and target HIV-I DNA target nucleic acid (220 μl) were then added to each tube, and the contents of the each of the three tubes were used to fill the PCR reagent compartment of eight pouches.\nAmplification was carried out using the same procedures as in Example 1. […]\nThe results of amplification were detected in three ways: (1) color dye scores visually evaluated as 0 (no signal) to 10 (highest signal density), (2) ethidium bromide stained electrophoretic gels, and (3) fluorescence measured on a commercially available Perkin Elmer fluorimeter.\nThree replicate assays of each sample (A, B and C) were carried out using each detection means. The average result for each detection means was as follows:\nFluorescent signal was generated using a Perkin-Elmer LS-5B fluorimeter, at the following wavelengths for both dyes:\nEach amplification product mixture was diluted 100× into a solution of each dye (1 μmolar final concentration). Background signals were obtained from a mixture of amplification reagent mixture and each dye."}}, "note": "Values joined by “and” are separate entries in the source; they are usually repeats but may differ in a detail not shown here. Identical values can stand only once."}
{"smiles": "C[n+]1c(C=C2C=CN(CCC[N+](C)(C)C)c3ccccc32)oc2ccccc21", "note": "[Compound E]", "values": [{"measurement": "Kd", "setting": "[1]", "value": 6.67, "unit": "µM"}, {"measurement": "fluorescence after PCR", "setting": "HIV-I DNA [2]; after 45 PCR cycles, excitation 491 nm, emission 509 nm", "value": "about 20 fluorescent units"}, {"measurement": "effect of dye on PCR", "setting": "HIV-I DNA [2]; dye present throughout entire amplification, 1 μmolar", "value": "did not adversely affect PCR"}, {"measurement": "Fluorescence, dye added after amplification (Sample A)", "setting": "HIV-I DNA [3]; Sample A, dye added after amplification, replicates, 491/509 nm, listed as YO-PRO-1", "value": "3.6 Fluorescent Units and 3.7 Fluorescent Units and 3.4 Fluorescent Units and 3.0 Fluorescent Units"}, {"measurement": "Background fluorescence", "setting": "HIV-I DNA [3]; amplification reagent mixture and dye, excitation 491 nm, emission 509 nm", "value": 0.03, "unit": "Fluorescent Units"}, {"measurement": "effect of dye on amplification / overall signal", "setting": "HIV-I DNA [3]; comparison of the two dyes (fluorescence)", "value": "lower overall signal"}, {"measurement": "Fluorescence, dye present during amplification (Samples B, C)", "setting": "HIV-I DNA [3]; dye added prior to amplification, replicates, 491/509 nm, listed as YO-PRO-1", "value": "3.7 Fluorescent Units and 3.5 Fluorescent Units and 3.6 Fluorescent Units and 3.2 Fluorescent Units and 2.8 Fluorescent Units"}, {"measurement": "signal and use of dye during amplification", "setting": "HIV-I DNA [3]; dye included in reagent mixture during amplification", "value": "can be included in the reagent mixture during amplification"}]}
